Data on 73 compounds can be found in PubChem BioAssay AID1996.

≈ marks a conversion by molar mass, not a printed value.

For the data set the following is noted: buffer; pH 7.4; 200.0 µM.
For `O=C1CN(C(=O)CN2C(=O)NC(c3ccccc3)(c3ccccc3)C2=O)c2ccccc2N1`, the kinetic solubility (commonly the concentration staying in solution when a stock, usually in DMSO, is diluted into the medium) stood at 0.0063 mg/mL (≈ 14.3 µM). With `CC(NC(=O)C(=O)NCC1CCCO1)c1ccccc1` (stereo not drawn) the figure was greater than 0.0415 mg/mL.

For the compound `N#C/C(=C(/O)c1ccco1)c1nc2ccccc2s1`, the solubility (kinetic) is greater than 0.0402 mg/mL. With `CC1=CC(C)(C)NC(=S)N1C(C)c1ccccc1` (stereo not drawn) the figure was 0.0072 mg/mL (≈ 27.6 µM).

Take `COCCn1c(C)cc(C(=O)COC(=O)/C=C/c2ccc(OC)cc2OC)c1C`: the solubility (kinetic) turned out to be 0.0027 mg/mL (≈ 6.73 µM). Compared with the last compound, the solubility kinetic is about 2.7-fold lower. Consider `Cl.OCCNCCNCc1ccccc1OCc1ccccc1`, for which the kinetic solubility was greater than 0.0505 mg/mL. To `COc1ccc(CC(=O)OC(C)C(=O)Nc2ccc(S(N)(=O)=O)cc2)cc1` (stereo not drawn) belongs greater than 0.0589 mg/mL; to `Cn1c(COc2ccc([N+](=O)[O-])cc2)nnc1SCC(N)=O`, greater than 0.0485 mg/mL. With `COc1ccc2[nH]cc(S(=O)(=O)c3ccc(C)cc3)c2c1` the figure was 0.0302 mg/mL (≈ 100 µM); with `COC(=O)c1cccc(NC(=O)C(C)(C)C)c1`, greater than 0.0353 mg/mL; with `COc1ccc2ccccc2c1CN(C)Cc1ccccc1.O=C(O)C(=O)O`, 0.0531 mg/mL. To `CCCC(=O)Oc1ccc(-c2nccc(C(OC)OC)n2)cc1` belongs 0.0461 mg/mL (≈ 146 µM). `O=C(Cc1ccccc1)Nc1nc(-c2ccc(F)c(F)c2)cs1` registered a solubility (kinetic) of 0.0004 mg/mL (≈ 1.21 µM). With `Cn1c(=O)c2c(ncn2CC(=O)Nc2cc(S(=O)(=O)N3CCCCC3)ccc2O)n(C)c1=O` the figure was greater than 0.0715 mg/mL; with `CC1CCC2(CC1)NC(=O)N(CC(=O)N1CC(C)CC(C)C1)C2=O` (stereo not drawn), 0.0158 mg/mL (≈ 47.1 µM); with `CC1Cc2ccccc2N1C1=CC(=O)CCC1` (stereo not drawn), greater than 0.0341 mg/mL. `CCN1CCN(Cc2cc(=O)oc3ccc(C)cc23)CC1` yielded a kinetic solubility greater than 0.043 mg/mL. To `O=C(c1ccc(Cl)c(S(=O)(=O)N2CCc3ccccc32)c1)N1CCN(c2ccccc2O)CC1` belongs 0.0113 mg/mL (≈ 22.7 µM); to `N#C/C(=C\c1ccc2c(c1)OCCO2)C(=O)Nc1nccs1`, 0.0288 mg/mL (≈ 91.9 µM); to `O=C(CSc1ccccc1C(=O)O)NC12CC3CC(CC(C3)C1)C2`, greater than 0.0518 mg/mL. To `Nc1ccc(Sc2ccccc2)nc1` belongs greater than 0.0303 mg/mL; to `Cc1cccc(N2CCN(C(=O)NCc3ccc(F)cc3)CC2)c1C`, 0.0032 mg/mL (≈ 9.37 µM).

`CS(=O)(=O)N1CCN(c2ccc([N+](=O)[O-])c3cccnc23)CC1` displayed a solubility (kinetic) of 0.0097 mg/mL (≈ 28.8 µM). With `O=C(Nc1ccccn1)c1cc2ccccc2cc1O` the figure was 0.0005 mg/mL (≈ 1.89 µM); with `O=C(O)CC1(CC(=O)Nc2ccccc2N2CCOCC2)CCCC1`, greater than 0.052 mg/mL; with `Cc1c(Cl)cnc(NC(=O)COC(=O)C2CCCC2)c1Cl`, greater than 0.0497 mg/mL. In turn, `CCOC(=O)C1CCN(C(=O)COC(=O)C23CC4CC(CC(C4)C2)C3)CC1` yielded a solubility (kinetic) of 0.0507 mg/mL (≈ 134 µM).

`Cc1cccc(NC(=O)C2CCCN(c3cnccn3)C2)c1` (stereo not drawn): the kinetic solubility came out at 0.0272 mg/mL (≈ 91.8 µM). With `CC(OC(=O)c1ccccc1)C(=O)NCCC1=CCCCC1` (stereo not drawn) the figure was greater than 0.0452 mg/mL. To `S=C(NCCc1c[nH]c2ccccc12)NC1CCCCC1` belongs 0.0028 mg/mL (≈ 9.29 µM).

For `Cc1nonc1NC(=O)CSc1nc2ccccc2o1`, the kinetic solubility is 0.0424 mg/mL (≈ 146 µM). Against the preceding compound, the solubility kinetic is about 15-fold higher. With `O=C(c1cccc(Cl)c1)N1CCC(c2nc3ccccc3[nH]2)CC1` the figure was 0.0426 mg/mL (≈ 125 µM); with `Cc1cc(C)cc(C(=O)OCC(=O)N2CCCCCC2)c1`, greater than 0.0434 mg/mL. With `COc1ccc(OC)c(C(O)C2CCCCN2)c1.Cl` (stereo not drawn) the figure was greater than 0.0432 mg/mL; with `Cc1nc2ccc(Cl)cc2c(=O)n1-c1ccccc1Cl`, 0.0104 mg/mL (≈ 34.1 µM).

In turn, `O=C(/C=C/c1ccc(Cl)c([N+](=O)[O-])c1)c1ccc(O)cc1` had a solubility (kinetic) of 0.0039 mg/mL (≈ 12.8 µM). Take `COC(=O)C/C(N)=C(\C#N)C(=O)OC`: the kinetic solubility is greater than 0.0297 mg/mL. With `COc1cc(NC(=O)C(Cc2ccccc2)n2cccc2)cc(OC)c1` (stereo not drawn) the figure was 0.0163 mg/mL (≈ 46.5 µM). With `COC(=O)CS(=O)(=O)c1cc([N+](=O)[O-])ccc1NC(=O)OC` the figure was 0.0387 mg/mL (≈ 116 µM).

Compound `CCCC(=O)Nc1cc2c3c(c1)CC(=O)N3CCC2` gave a solubility (kinetic) greater than 0.0387 mg/mL. With `CC(=O)c1sc2nsc(SCCN3CCCCC3)c2c1N` the figure was 0.0475 mg/mL (≈ 139 µM); with `O=C(Cn1c(=O)oc2cccnc21)Nc1ccc(C(F)(F)F)cc1`, 0.0089 mg/mL (≈ 26.4 µM); with `O=C(/C=C/c1ccco1)OCC(=O)c1cccc([N+](=O)[O-])c1`, 0.0032 mg/mL (≈ 10.6 µM).

On to `S=C(Nc1ccccc1Cl)N1CCN(c2ccccn2)CC1`, for which the solubility (kinetic) stood at 0.0023 mg/mL (≈ 6.91 µM). With `COc1ccc(NC(C)=O)cc1NC(=O)c1ccc(Cl)cc1` the figure was 0.0172 mg/mL (≈ 54 µM).

Regarding `CCNC(=O)C1CCCN1S(=O)(=O)c1ccc2ccccc2c1` (stereo not drawn), the kinetic solubility is greater than 0.0499 mg/mL. To `COC(=O)C(C)NC(=O)C12CC3CC(C1)CC(c1ccc(C)cc1)(C3)C2` (stereo not drawn) belongs 0.0306 mg/mL (≈ 86.1 µM); to `O=C(COC(=O)COc1ccccc1)Nc1ccc(Br)cc1F`, 0.0123 mg/mL (≈ 32.2 µM). With `COc1cc(OC)c2c(c1)S(=O)(=O)C(c1ccccc1)=C2N` the figure was 0.0051 mg/mL (≈ 16.1 µM). To `O=C(COC(=O)COc1ccc(Cl)cc1Cl)NC1CC1` belongs greater than 0.0477 mg/mL; to `Cc1cccc(N2CC(C(=O)Nc3ccccc3N3CCOCC3)CC2=O)c1C` (stereo not drawn), greater than 0.059 mg/mL.

As to `COc1ccc(Nc2c3c(nc4ccccc24)CCC3)c(OC)c1`, the kinetic solubility was greater than 0.0481 mg/mL. To `Cc1onc(-c2ccccc2)c1C(=O)NCCSCc1ccco1` belongs greater than 0.0514 mg/mL.

`N/C(=N\OC(=O)CSc1ccccc1)c1ccncc1`: the solubility (kinetic) is 0.0376 mg/mL (≈ 131 µM).

The compound `Cc1ccc(C)c(S(=O)(=O)N2CCN(c3ncnc4sccc34)CC2)c1` gave a kinetic solubility of 0.0056 mg/mL (≈ 14.4 µM).

As to `CCC(=O)Nc1ccc(NCc2cccs2)cc1`, the kinetic solubility was greater than 0.0391 mg/mL. With `O=C1CCc2ccc(NS(=O)(=O)c3ccc(F)cc3)cc2N1` the figure was greater than 0.0481 mg/mL; with `Cl.NC1(C(=O)O)CC1`, greater than 0.0206 mg/mL; with `CC(CN1CCCCC1)OC(=O)/C=C/c1ccccc1.Cl` (stereo not drawn), greater than 0.0465 mg/mL. To `COc1ccc(-c2nc3n(c(=O)c2C#N)CCS3)cc1OC` belongs 0.0119 mg/mL (≈ 37.7 µM). To `COCCn1cnc2c1c(=O)n(CC(=O)NCC(F)(F)F)c(=O)n2Cc1ccccc1` belongs 0.0399 mg/mL (≈ 90.8 µM); to `O=C(COC(=O)c1cccnc1Cl)NCc1cccs1`, 0.0441 mg/mL (≈ 142 µM). `COc1ccc(-n2c(=S)[nH]c(=O)c3cccnc32)cc1` showed a kinetic solubility of 0.011 mg/mL (≈ 38.6 µM). On to `COCC1CCCN(Cc2nc(-c3ccc4c(c3)OCO4)no2)C1` (stereo not drawn), for which the solubility (kinetic) was 0.0434 mg/mL (≈ 131 µM). This solubility kinetic lies about 3.9-fold higher than the previous one. With `CS(=O)(=O)N1Cc2ccccc2CC1C(=O)O` (stereo not drawn) the figure was greater than 0.0383 mg/mL. To `COc1ccccc1CNC(=O)COC(=O)c1nccnc1N` belongs 0.0397 mg/mL (≈ 126 µM); to `CCc1nc2sc3c(=O)[nH]cnc3c2c2c1CSC(C)(C)C2`, 0.0167 mg/mL (≈ 50.4 µM). With `COc1ccc(C(=O)NCCc2c[nH]c3ccccc23)cc1[N+](=O)[O-]` the figure was 0.0108 mg/mL (≈ 31.8 µM). Compound `CCOc1ccc(N2CC(C(=O)NCc3ccco3)CC2=O)cc1` (stereo not drawn) registered a solubility (kinetic) greater than 0.0493 mg/mL. With `COC(=O)C1=C(C)NC(=O)NC1c1ccco1` (stereo not drawn) the figure was 0.0278 mg/mL (≈ 118 µM); with `CCN(CC)CC(O)COC(c1ccccc1)c1ccccc1` (stereo not drawn), 0.0418 mg/mL (≈ 133 µM); with `N#C/C(=C\Nc1ccccn1)S(=O)(=O)c1ccc(Cl)cc1`, 0.0004 mg/mL (≈ 1.25 µM).

Compound `N/C(=N/OC(=O)c1ccccc1Cl)c1ncc([N+](=O)[O-])s1` showed a kinetic solubility of 0.0013 mg/mL (≈ 3.98 µM). Compared with the last compound, the solubility kinetic is about 3.2-fold higher.
